Test results from ChEMBL document CHEMBL1150883, “Antitumor-promoting naphthoquinones from Catalpa ovata” (J Nat Prod, 1998).

Legend:
Format in all cases: cell-based
[1] = Cytotoxicity against human Raji cells assessed as cell viability at 1000 molar ratio after 48 hrs; conditions: read-out: Activity
Raji [2] = assay: Inhibition of 12-O-tetradecanoylphorbol-13-acetate induced EBV-early antigen activation in human Raji cells at 10 molar ratio per 32 pmol/ml TPA by immunofluorescence technique relative to control; design: Activity: scale not given: the % may be the effect or the level left; conditions: human gammaherpesvirus 4
Raji [3] = assay: Inhibition of 12-O-tetradecanoylphorbol-13-acetate induced EBV-early antigen activation in human Raji cells at 1000 molar ratio per 32 pmol/ml TPA by immunofluorescence technique relative to control; design: scale not given: the % may be the effect or the level left; conditions: human gammaherpesvirus 4
[4] = Cytotoxicity against human Raji cells assessed as cell viability at 500 molar ratio after 48 hrs; conditions: read-out: Activity

| SMILES | viability at 48 h, 1000 molar ratio [1] | Activity (Raji [2]) | Activity (Raji [3]) | EBV-EA activation remaining (% of TPA control) (Raji [2]) | viability at 48 h, 500 molar ratio [4] |
| --- | --- | --- | --- | --- | --- |
| C=C(C)[C@H]1CC2=C(O1)C(=O)c1c(OC)cccc1C2=O | 60% | 100% | 0% |  |  |
| CC1(C)C[C@H](O)C2=C(O1)C(=O)c1ccccc1C2=O | 60% |  | 11.2% | 86.7% |  |
| CC1(C)CC=C(C2OC(=O)c3ccccc32)C(=O)O1 (stereo not drawn) [CATALPALACTONE] | 70% |  | 0% | 89.5% |  |
| CC1(C)C[C@H](O)[C@H]2C(=O)c3ccccc3[C@@H](O)[C@@H]2O1 | 70% |  | 0% | 93.8% |  |
| CC1=C(/C=C/C(C)=C/C=C/C(C)=C/C=C/C=C(C)/C=C/C=C(C)/C=C/C2=C(C)CCCC2(C)C)C(C)(C)CCC1 [BETA CAROTENE] | 70% |  | 8.6% | 100% |  |
| COc1cccc2c1C(=O)C1=C(C(=O)CC(C)(C)O1)C2=O | 70% |  | 32.7% | 100% |  |
| C=C(C)[C@@H]1OC2=C(C(=O)c3ccccc3C2=O)[C@@H]1O | 30% |  | 0% | 88.5% | 60% |
| COc1cccc2c1C(=O)C1=C(CCC(C)(C)O1)C2=O | 70% |  | 83.8% | 100% |  |
| CC1(C)C[C@H](O)C2=C(O1)C(=O)c1c(O)cccc1C2=O | 60% |  | 36.1% | 100% |  |
